Reference: ChEMBL document CHEMBL3421558, “Structure activity relationship of substituted 1,5-naphthyridine analogs of oxabicyclooctane-linked novel bacterial topoisomerase inhibitors as broad-spectrum antibacterial agents (Part-4)” (Bioorg Med Chem Lett, 2015)
In brackets after ≈: the same amount, converted by molar mass.

Test system: not listed separately
Test: Plasma clearance in C57BL/6 mouse at 1 mg/kg, iv or 10 mg/kg, po
Type: ADME, organism-based
Settings: not given

Structure (SMILES) | clearance [mL/min/kg]
COc1ccc2nccc(CCC34CCC(NCc5ccc6c(n5)NC(=O)CO6)(CC3)CO4)c2n1 | 40.8

Test system: Acinetobacter baumannii
Test: Antimicrobial activity against Acinetobacter baumannii IID876 by micro broth dilution or agar based method
Type: functional
Settings: Acinetobacter baumannii, IID876; read-out: MIC

Structure (SMILES) | MIC [µg/mL]
CN(C)c1cnc2c(CCC34CCC(NCc5ccc6c(n5)NC(=O)CO6)(CC3)CO4)c(F)cnc2c1 | 16 (≈ 31.6 µM)
COc1ccc2nccc(CCC34CCC(NCc5ccc6c(n5)NC(=O)CO6)(CC3)CO4)c2n1 | 2 (≈ 4.21 µM)
COc1ccc2ncc(F)c(CCC34CCC(NCc5ccc6c(n5)NC(=O)CO6)(CC3)CO4)c2n1 | 0.5 (≈ 1.01 µM)
CCOc1cc(C)c2ncc(F)c(CCC34CCC(NCc5ccc6c(n5)NC(=O)CO6)(CC3)CO4)c2n1 | 4 (≈ 7.67 µM)
O=C1COc2ccc(CNC34CCC(CCc5c(F)cnc6ccc(N7CCOCC7)nc56)(CC3)OC4)nc2N1 | 16 (≈ 29.2 µM)
Cc1cc(S(C)(=O)=O)nc2c(CCC34CCC(NCc5ccc6c(n5)NC(=O)CO6)(CC3)CO4)c(F)cnc12 | 2 (≈ 3.6 µM)

Target: Voltage-gated inwardly rectifying potassium channel KCNH2 (Homo sapiens, UniProt Q12809)
Test: Inhibition of MK499 binding to human ERG
Settings: not given

Sequence of Voltage-gated inwardly rectifying potassium channel KCNH2 (Q12809 whole entry): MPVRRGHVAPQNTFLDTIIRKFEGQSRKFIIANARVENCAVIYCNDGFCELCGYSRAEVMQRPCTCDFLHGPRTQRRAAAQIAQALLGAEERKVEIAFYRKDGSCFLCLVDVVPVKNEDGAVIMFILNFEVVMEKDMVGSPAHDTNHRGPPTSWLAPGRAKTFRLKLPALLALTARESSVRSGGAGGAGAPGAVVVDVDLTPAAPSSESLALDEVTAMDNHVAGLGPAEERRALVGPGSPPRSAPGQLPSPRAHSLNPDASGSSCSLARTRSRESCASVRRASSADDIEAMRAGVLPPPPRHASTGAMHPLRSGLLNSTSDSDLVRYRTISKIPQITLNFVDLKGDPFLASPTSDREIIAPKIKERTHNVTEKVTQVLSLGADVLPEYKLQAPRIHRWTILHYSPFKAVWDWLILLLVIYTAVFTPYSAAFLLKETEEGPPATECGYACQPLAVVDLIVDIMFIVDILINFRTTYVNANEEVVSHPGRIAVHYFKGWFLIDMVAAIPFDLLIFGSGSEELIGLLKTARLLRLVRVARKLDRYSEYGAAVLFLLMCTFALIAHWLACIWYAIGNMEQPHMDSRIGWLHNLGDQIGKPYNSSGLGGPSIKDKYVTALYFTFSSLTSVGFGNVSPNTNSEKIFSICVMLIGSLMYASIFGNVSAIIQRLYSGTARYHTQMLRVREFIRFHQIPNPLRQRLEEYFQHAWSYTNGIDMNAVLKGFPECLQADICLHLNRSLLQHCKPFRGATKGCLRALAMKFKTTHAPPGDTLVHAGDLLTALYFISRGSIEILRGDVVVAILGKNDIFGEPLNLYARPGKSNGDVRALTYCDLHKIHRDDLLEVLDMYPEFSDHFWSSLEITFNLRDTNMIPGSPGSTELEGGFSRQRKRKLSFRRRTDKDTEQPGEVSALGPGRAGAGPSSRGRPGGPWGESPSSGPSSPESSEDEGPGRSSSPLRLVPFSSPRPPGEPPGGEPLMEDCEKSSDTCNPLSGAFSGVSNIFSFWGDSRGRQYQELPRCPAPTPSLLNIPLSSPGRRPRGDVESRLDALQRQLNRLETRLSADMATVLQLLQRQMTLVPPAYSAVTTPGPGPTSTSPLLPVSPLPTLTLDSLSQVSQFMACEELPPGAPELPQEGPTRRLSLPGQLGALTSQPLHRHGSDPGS

Structure (SMILES) | IC50 [µM]
CN(C)c1cnc2c(CCC34CCC(NCc5ccc6c(n5)NC(=O)CO6)(CC3)CO4)c(F)cnc2c1 | 18.4
CCOc1cc(C)c2ncc(F)c(CCC34CCC(NCc5ccc6c(n5)NC(=O)CO6)(CC3)CO4)c2n1 | 1.19
O=C1COc2ccc(CNC34CCC(CCc5c(F)cnc6ccc(N7CCOCC7)nc56)(CC3)OC4)nc2N1 | 11.5
Cc1cc(S(C)(=O)=O)nc2c(CCC34CCC(NCc5ccc6c(n5)NC(=O)CO6)(CC3)CO4)c(F)cnc12 | 12.4

Test system: Escherichia coli
Test: Antimicrobial activity against Escherichia coli ATCC 25922 by micro broth dilution or agar based method
Type: functional
Settings: Escherichia coli, ATCC 25922; read-out: MIC

Structure (SMILES) | MIC [µg/mL]
CN(C)c1cnc2c(CCC34CCC(NCc5ccc6c(n5)NC(=O)CO6)(CC3)CO4)c(F)cnc2c1 | 16 (≈ 31.6 µM)
COc1ccc2nccc(CCC34CCC(NCc5ccc6c(n5)NC(=O)CO6)(CC3)CO4)c2n1 | 2 (≈ 4.21 µM)
COc1ccc2ncc(F)c(CCC34CCC(NCc5ccc6c(n5)NC(=O)CO6)(CC3)CO4)c2n1 | 1 (≈ 2.03 µM)
CCOc1cc(C)c2ncc(F)c(CCC34CCC(NCc5ccc6c(n5)NC(=O)CO6)(CC3)CO4)c2n1 | 8 (≈ 15.3 µM)
O=C1COc2ccc(CNC34CCC(CCc5c(F)cnc6ccc(N7CCOCC7)nc56)(CC3)OC4)nc2N1 | 16 (≈ 29.2 µM)
Cc1cc(S(C)(=O)=O)nc2c(CCC34CCC(NCc5ccc6c(n5)NC(=O)CO6)(CC3)CO4)c(F)cnc12 | 8 (≈ 14.4 µM)

Test system: Enterococcus faecium
Test: Antimicrobial activity against VanA expressing vancomycin-resistant Enterococcus faecium by micro broth dilution or agar based method
Type: functional
Settings: Enterococcus faecium; read-out: MIC

Structure (SMILES) | MIC [µg/mL]
CN(C)c1cnc2c(CCC34CCC(NCc5ccc6c(n5)NC(=O)CO6)(CC3)CO4)c(F)cnc2c1 | 16 (≈ 31.6 µM)
COc1ccc2nccc(CCC34CCC(NCc5ccc6c(n5)NC(=O)CO6)(CC3)CO4)c2n1 | 1 (≈ 2.1 µM)
COc1ccc2ncc(F)c(CCC34CCC(NCc5ccc6c(n5)NC(=O)CO6)(CC3)CO4)c2n1 | 0.5 (≈ 1.01 µM)
CCOc1cc(C)c2ncc(F)c(CCC34CCC(NCc5ccc6c(n5)NC(=O)CO6)(CC3)CO4)c2n1 | 4 (≈ 7.67 µM)
O=C1COc2ccc(CNC34CCC(CCc5c(F)cnc6ccc(N7CCOCC7)nc56)(CC3)OC4)nc2N1 | 8 (≈ 14.6 µM)
Cc1cc(S(C)(=O)=O)nc2c(CCC34CCC(NCc5ccc6c(n5)NC(=O)CO6)(CC3)CO4)c(F)cnc12 | 4 (≈ 7.2 µM)

Test system: not listed separately
Test: Volume of distribution at steady state in C57BL/6 mouse at 1 mg/kg, iv or 10 mg/kg, po
Type: ADME, organism-based
Settings: in vivo, read-out: Vdss

Structure (SMILES) | Vd [L/kg]
COc1ccc2nccc(CCC34CCC(NCc5ccc6c(n5)NC(=O)CO6)(CC3)CO4)c2n1 | 5.95

Test system: Mus musculus
Test: Dose normalized AUC in C57BL/6 mouse at 1 mg/kg, iv
Type: ADME, organism-based
Design: dose 1 mg/kg, route intravenous
Settings: in vivo

Structure (SMILES) | AUC/dose [µM·h/mg/kg]
COc1ccc2nccc(CCC34CCC(NCc5ccc6c(n5)NC(=O)CO6)(CC3)CO4)c2n1 | 0.86

Test system: Staphylococcus aureus
Test: Potency index, ratio of MIC for quinolone-resistant Staphylococcus aureus MS5935 to MIC for quinolone-[…]
Type: functional
Settings: not given

Structure (SMILES) | Ratio
CN(C)c1cnc2c(CCC34CCC(NCc5ccc6c(n5)NC(=O)CO6)(CC3)CO4)c(F)cnc2c1 | <4
CCOc1cc(C)c2ncc(F)c(CCC34CCC(NCc5ccc6c(n5)NC(=O)CO6)(CC3)CO4)c2n1 | <4
O=C1COc2ccc(CNC34CCC(CCc5c(F)cnc6ccc(N7CCOCC7)nc56)(CC3)OC4)nc2N1 | <4
Cc1cc(S(C)(=O)=O)nc2c(CCC34CCC(NCc5ccc6c(n5)NC(=O)CO6)(CC3)CO4)c(F)cnc12 | <4

Test system: Staphylococcus aureus
Test: Antimicrobial activity against methicillin-resistant Staphylococcus aureus OIT971 by micro broth dilution or agar based method
Type: functional
Settings: not given

Structure (SMILES) | MIC [µg/mL]
CN(C)c1cnc2c(CCC34CCC(NCc5ccc6c(n5)NC(=O)CO6)(CC3)CO4)c(F)cnc2c1 | 16 (≈ 31.6 µM)
COc1ccc2nccc(CCC34CCC(NCc5ccc6c(n5)NC(=O)CO6)(CC3)CO4)c2n1 | 0.031 (≈ 0.0652 µM)
COc1ccc2ncc(F)c(CCC34CCC(NCc5ccc6c(n5)NC(=O)CO6)(CC3)CO4)c2n1 | 0.008 (≈ 0.0162 µM)
CCOc1cc(C)c2ncc(F)c(CCC34CCC(NCc5ccc6c(n5)NC(=O)CO6)(CC3)CO4)c2n1 | 0.031 (≈ 0.0594 µM)
O=C1COc2ccc(CNC34CCC(CCc5c(F)cnc6ccc(N7CCOCC7)nc56)(CC3)OC4)nc2N1 | 0.25 (≈ 0.456 µM)
Cc1cc(S(C)(=O)=O)nc2c(CCC34CCC(NCc5ccc6c(n5)NC(=O)CO6)(CC3)CO4)c(F)cnc12 | 0.125 (≈ 0.225 µM)

Test system: Staphylococcus aureus
Test: Antimicrobial activity against Staphylococcus aureus Smith by micro broth dilution or agar based method
Type: functional
Settings: Staphylococcus aureus, Smith; read-out: MIC

Structure (SMILES) | MIC [µg/mL]
CN(C)c1cnc2c(CCC34CCC(NCc5ccc6c(n5)NC(=O)CO6)(CC3)CO4)c(F)cnc2c1 | 16 (≈ 31.6 µM)
COc1ccc2nccc(CCC34CCC(NCc5ccc6c(n5)NC(=O)CO6)(CC3)CO4)c2n1 | 0.031 (≈ 0.0652 µM)
COc1ccc2ncc(F)c(CCC34CCC(NCc5ccc6c(n5)NC(=O)CO6)(CC3)CO4)c2n1 | 0.016 (≈ 0.0324 µM)
CCOc1cc(C)c2ncc(F)c(CCC34CCC(NCc5ccc6c(n5)NC(=O)CO6)(CC3)CO4)c2n1 | 0.063 (≈ 0.121 µM)
O=C1COc2ccc(CNC34CCC(CCc5c(F)cnc6ccc(N7CCOCC7)nc56)(CC3)OC4)nc2N1 | 0.5 (≈ 0.911 µM)
Cc1cc(S(C)(=O)=O)nc2c(CCC34CCC(NCc5ccc6c(n5)NC(=O)CO6)(CC3)CO4)c(F)cnc12 | 0.125 (≈ 0.225 µM)

Test system: not listed separately
Test: Half life in C57BL/6 mouse at 1 mg/kg, iv or 10 mg/kg, po
Type: ADME, organism-based
Settings: in vivo

Structure (SMILES) | half-life [h]
COc1ccc2nccc(CCC34CCC(NCc5ccc6c(n5)NC(=O)CO6)(CC3)CO4)c2n1 | 7.97

Test system: Streptococcus pneumoniae
Test: Antimicrobial activity against Streptococcus pneumoniae IID553 by micro broth dilution or agar based method
Type: functional
Settings: Streptococcus pneumoniae, IID553; read-out: MIC

Structure (SMILES) | MIC [µg/mL]
CN(C)c1cnc2c(CCC34CCC(NCc5ccc6c(n5)NC(=O)CO6)(CC3)CO4)c(F)cnc2c1 | 16 (≈ 31.6 µM)
COc1ccc2nccc(CCC34CCC(NCc5ccc6c(n5)NC(=O)CO6)(CC3)CO4)c2n1 | 0.5 (≈ 1.05 µM)
COc1ccc2ncc(F)c(CCC34CCC(NCc5ccc6c(n5)NC(=O)CO6)(CC3)CO4)c2n1 | 0.125 (≈ 0.253 µM)
CCOc1cc(C)c2ncc(F)c(CCC34CCC(NCc5ccc6c(n5)NC(=O)CO6)(CC3)CO4)c2n1 | 1 (≈ 1.92 µM)
O=C1COc2ccc(CNC34CCC(CCc5c(F)cnc6ccc(N7CCOCC7)nc56)(CC3)OC4)nc2N1 | 4 (≈ 7.29 µM)
Cc1cc(S(C)(=O)=O)nc2c(CCC34CCC(NCc5ccc6c(n5)NC(=O)CO6)(CC3)CO4)c(F)cnc12 | 4 (≈ 7.2 µM)

Test system: not listed separately
Test: Oral bioavailability in C57BL/6 mouse at 10 mg/kg
Type: ADME, organism-based
Settings: in vivo

Structure (SMILES) | bioavailability [%]
COc1ccc2nccc(CCC34CCC(NCc5ccc6c(n5)NC(=O)CO6)(CC3)CO4)c2n1 | 30.4
COc1ccc2ncc(F)c(CCC34CCC(NCc5ccc6c(n5)NC(=O)CO6)(CC3)CO4)c2n1 | 71

Test system: Pseudomonas aeruginosa
Test: Antimicrobial activity against Pseudomonas aeruginosa PAO1 by micro broth dilution or agar based method
Type: functional
Settings: Pseudomonas aeruginosa, PAO1; read-out: MIC

Structure (SMILES) | MIC [µg/mL]
CN(C)c1cnc2c(CCC34CCC(NCc5ccc6c(n5)NC(=O)CO6)(CC3)CO4)c(F)cnc2c1 | 16 (≈ 31.6 µM)
COc1ccc2nccc(CCC34CCC(NCc5ccc6c(n5)NC(=O)CO6)(CC3)CO4)c2n1 | 8 (≈ 16.8 µM)
COc1ccc2ncc(F)c(CCC34CCC(NCc5ccc6c(n5)NC(=O)CO6)(CC3)CO4)c2n1 | 4 (≈ 8.1 µM)
CCOc1cc(C)c2ncc(F)c(CCC34CCC(NCc5ccc6c(n5)NC(=O)CO6)(CC3)CO4)c2n1 | 32 (≈ 61.4 µM)
O=C1COc2ccc(CNC34CCC(CCc5c(F)cnc6ccc(N7CCOCC7)nc56)(CC3)OC4)nc2N1 | 16 (≈ 29.2 µM)
Cc1cc(S(C)(=O)=O)nc2c(CCC34CCC(NCc5ccc6c(n5)NC(=O)CO6)(CC3)CO4)c(F)cnc12 | 32 (≈ 57.6 µM)
